From PubChem BioAssay AID248 (DTP/NCI, 2004)
Where “and” joins values, the source holds several entries; their conditions need not be identical. Identical values can stand only once. Inconclusive results and toxic doses are left out.

Tested on: L1210 leukemia ip in BDF1 mice, survival T/C
Assay: NCI In Vivo Anticancer Drug Screen. Data for tumor model L1210 Leukemia (intraperitoneal) in B6D2F1 (BDF1) mice
Conditions: endpoint: mean survival time, higher = longer survival
Outline: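 Tumor cells were implanted, animals were treated, and survival was followed. The result divides the treated measurement by the vehicle-control measurement.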

[1] = dose: 100.0 mg/kg/injection, schedule: Q01DX001 (ip), vehicle: carboxymethylcellulose (CMC)
[2] = dose: 200.0 mg/kg/injection, schedule: Q01DX001 (ip), vehicle: carboxymethylcellulose (CMC)
[3] = dose: 400.0 mg/kg/injection, schedule: Q01DX001 (ip), vehicle: carboxymethylcellulose (CMC)
[4] = dose: 400.0 mg/kg/injection, schedule: Q01DX009 (ip), vehicle: carboxymethylcellulose (CMC)
[5] = dose: 200.0 mg/kg/injection, schedule: Q01DX001 (ip), vehicle: saline
[6] = dose: 100.0 mg/kg/injection, schedule: Q04DX003 (ip), vehicle: saline with Tween-80
[7] = dose: 200.0 mg/kg/injection, schedule: Q04DX003 (ip), vehicle: saline with Tween-80
[8] = dose: 100.0 mg/kg/injection, schedule: Q04DX002 (ip), vehicle: Klucel (hydroxypropylcellulose) (HPC)
[9] = dose: 200.0 mg/kg/injection, schedule: Q04DX002 (ip), vehicle: Klucel (hydroxypropylcellulose) (HPC)
[10] = dose: 400.0 mg/kg/injection, schedule: Q04DX002 (ip), vehicle: Klucel (hydroxypropylcellulose) (HPC)

For `CN(CC(=O)C(C(N)=O)c1ccccc1)c1ccccc1` (stereo not given), the T/C (dose: 50.0 mg/kg/injection, schedule: Q01DX001 (ip), vehicle: carboxymethylcellulose (CMC)) was 96 % of control, the T/C [1] was 93 % of control and the T/C [2] was 93 % of control. The T/C [3] was 102 % of control.

`CCOC(=O)c1ccc(C(C)=O)o1` was tested, and the T/C (dose: 100.0 mg/kg/injection, schedule: Q04DX003 (ip), vehicle: Klucel (hydroxypropylcellulose) (HPC)) was 100 % of control, the T/C (dose: 200.0 mg/kg/injection, schedule: Q04DX003 (ip), vehicle: Klucel (hydroxypropylcellulose) (HPC)) was 106 % of control and the T/C (dose: 400.0 mg/kg/injection, schedule: Q04DX003 (ip), vehicle: Klucel (hydroxypropylcellulose) (HPC)) was 94 % of control.

In the case of `COc1ccc2c(c1)Cc1cc(NC(=O)N(CCCl)N=O)ccc1-2`, the T/C (dose: 10.0 mg/kg/injection, schedule: Q01DX009 (ip), vehicle: saline) is reported as 151 % of control, the T/C (dose: 20.0 mg/kg/injection, schedule: Q01DX009 (ip), vehicle: saline) is reported as 175 % of control and the T/C (dose: 25.0 mg/kg/injection, schedule: Q01DX001 (ip), vehicle: other) is reported as 122 % of control. For the same compound, the T/C (dose: 33.0 mg/kg/injection, schedule: Q01DX009 (ip), vehicle: carboxymethylcellulose (CMC)) was 188 % of control, the T/C (dose: 45.0 mg/kg/injection, schedule: Q01DX001 (ip), vehicle: other) was 123 % of control and the T/C (dose: 50.0 mg/kg/injection, schedule: Q01DX009 (ip), vehicle: carboxymethylcellulose (CMC)) was 163 % of control. For the same compound, the T/C (dose: 80.0 mg/kg/injection, schedule: Q01DX009 (ip), vehicle: other) was 123 % of control, the T/C (dose: 177.0 mg/kg/injection, schedule: Q01DX001 (ip), vehicle: carboxymethylcellulose (CMC)) was 182 % of control and the T/C (dose: 177.0 mg/kg/injection, schedule: Q01DX001 (ip), vehicle: other) was 154 % of control. For the same compound, the T/C (dose: 177.0 mg/kg/injection, schedule: Q01DX009 (ip), vehicle: carboxymethylcellulose (CMC)) was 107 % of control, the T/C (dose: 266.0 mg/kg/injection, schedule: Q01DX001 (ip), vehicle: carboxymethylcellulose (CMC)) was 178 % of control and the T/C (dose: 266.0 mg/kg/injection, schedule: Q01DX001 (ip), vehicle: other) was 154 % of control. For the same compound, the T/C (dose: 266.0 mg/kg/injection, schedule: Q01DX009 (ip), vehicle: carboxymethylcellulose (CMC)) was 97 % of control, the T/C [3] was 193 % of control and the T/C [4] was 96 % of control. The T/C (dose: 600.0 mg/kg/injection, schedule: Q01DX001 (ip), vehicle: carboxymethylcellulose (CMC)) was 186 % of control.

For `COC(=O)CCC(C)C1CCC2C3C(OC(C)=O)CC4CC(O)CCC4(C)C3CC(O)C12C` (stereo not given), the T/C (dose: 100.0 mg/kg/injection, schedule: Q01DX009 (ip), vehicle: carboxymethylcellulose (CMC)) was 93 % of control and 107 % of control, the T/C (dose: 100.0 mg/kg/injection, schedule: Q04DX002 (ip), vehicle: carboxymethylcellulose (CMC)) was 93 % of control and 97 % of control and the T/C (dose: 100.0 mg/kg/injection, schedule: Q04DX003 (ip), vehicle: carboxymethylcellulose (CMC)) was 104 % of control. The T/C (dose: 200.0 mg/kg/injection, schedule: Q01DX009 (ip), vehicle: carboxymethylcellulose (CMC)) was 91 % of control and 92 % of control, the T/C (dose: 200.0 mg/kg/injection, schedule: Q04DX002 (ip), vehicle: carboxymethylcellulose (CMC)) was 97 % of control and 98 % of control and the T/C (dose: 200.0 mg/kg/injection, schedule: Q04DX003 (ip), vehicle: carboxymethylcellulose (CMC)) was 97 % of control. For the same compound, the T/C [4] was 94 % of control and 88 % of control, the T/C (dose: 400.0 mg/kg/injection, schedule: Q04DX002 (ip), vehicle: carboxymethylcellulose (CMC)) was 97 % of control and the T/C (dose: 400.0 mg/kg/injection, schedule: Q04DX003 (ip), vehicle: carboxymethylcellulose (CMC)) was 95 % of control.

With `CC1(C)OC2C(C=O)OC(n3cnc4c(N)ncnc43)C2O1` (stereo not given) the T/C (dose: 100.0 mg/kg/injection, schedule: Q04DX003 (ip), vehicle: alcohol) was 102 % of control, the T/C (dose: 200.0 mg/kg/injection, schedule: Q04DX003 (ip), vehicle: alcohol) was 102 % of control and the T/C (dose: 400.0 mg/kg/injection, schedule: Q04DX003 (ip), vehicle: alcohol) was 96 % of control.

With `CN1C(=O)C(C)(C)C(=O)C1(C)C` the T/C [5] was 100 % of control and the T/C (dose: 400.0 mg/kg/injection, schedule: Q01DX001 (ip), vehicle: saline) was 117 % of control.

For `C[CH2][Sn](/[CH]=C/C(C)(C)O)([CH2]C)[CH2]C`, the T/C (dose: 50.0 mg/kg/injection, schedule: Q01DX009 (ip), vehicle: saline) was 102 % of control and the T/C (dose: 100.0 mg/kg/injection, schedule: Q01DX009 (ip), vehicle: saline) was 102 % of control.

In the case of `C#CCC#CCCCCCC`, the T/C (dose: 50.0 mg/kg/injection, schedule: Q01DX009 (ip), vehicle: saline with Tween-80) is reported as 95 % of control, the T/C (dose: 100.0 mg/kg/injection, schedule: Q01DX009 (ip), vehicle: saline with Tween-80) is reported as 95 % of control and the T/C (dose: 200.0 mg/kg/injection, schedule: Q01DX009 (ip), vehicle: saline with Tween-80) is reported as 95 % of control.

In the case of `CCCCC(C#N)(CCCC)C(=O)OCC`, the T/C [6] is reported as 93 % of control and the T/C [7] is reported as 98 % of control.

For `O=C/C(Br)=C(/Br)C(=O)O`, the T/C (dose: 6.25 mg/kg/injection, schedule: Q04DX002 (ip), vehicle: saline) was 100 % of control, the T/C (dose: 12.5 mg/kg/injection, schedule: Q04DX002 (ip), vehicle: saline) was 100 % of control and the T/C (dose: 25.0 mg/kg/injection, schedule: Q04DX002 (ip), vehicle: saline + alcohol) was 114 % of control. For the same compound, the T/C (dose: 25.0 mg/kg/injection, schedule: Q04DX002 (ip), vehicle: saline) was 111 % of control.

`CCCCNC(=O)Nc1ccc(Cl)cc1` was tested, and the T/C (dose: 25.0 mg/kg/injection, schedule: Q01DX001 (ip), vehicle: saline with Tween-80) was 100 % of control, the T/C (dose: 50.0 mg/kg/injection, schedule: Q01DX001 (ip), vehicle: saline with Tween-80) was 88 % of control and the T/C (dose: 100.0 mg/kg/injection, schedule: Q01DX001 (ip), vehicle: saline with Tween-80) was 88 % of control. The T/C [8] was 96 % of control, the T/C [9] was 100 % of control and the T/C [10] was 104 % of control.

`Cc1ccc(O)c(N=O)c1.[Co]` was tested, and the T/C (dose: 50.0 mg/kg/injection, schedule: Q01DX001 (ip), vehicle: saline) was 97 % of control, the T/C (dose: 100.0 mg/kg/injection, schedule: Q01DX001 (ip), vehicle: saline) was 109 % of control and the T/C [5] was 115 % of control.

For `CNC(=O)OCc1c(COC(=O)NC)c(-c2ccc(OC)cc2)n2c1CCC2`, the T/C (dose: 50.0 mg/kg/injection, schedule: Q01DX009 (ip), vehicle: Klucel (hydroxypropylcellulose) (HPC)) was 109 % of control, the T/C (dose: 100.0 mg/kg/injection, schedule: Q01DX009 (ip), vehicle: Klucel (hydroxypropylcellulose) (HPC)) was 117 % of control and the T/C (dose: 200.0 mg/kg/injection, schedule: Q01DX009 (ip), vehicle: Klucel (hydroxypropylcellulose) (HPC)) was 98 % of control.

For `CC(=O)[O][Sn]([c]1ccccc1)([c]1ccccc1)[c]1ccccc1`, the T/C (dose: 0.39 mg/kg/injection, schedule: Q01DX009 (ip), vehicle: saline with Tween-80) was 98 % of control, the T/C (dose: 0.78 mg/kg/injection, schedule: Q01DX009 (ip), vehicle: saline with Tween-80) was 93 % of control and the T/C (dose: 1.0 mg/kg/injection, schedule: Q01DX015 (ip), vehicle: saline) was 97 % of control. For the same compound, the T/C (dose: 1.56 mg/kg/injection, schedule: Q01DX009 (ip), vehicle: saline with Tween-80) was 106 % of control, the T/C (dose: 1.56 mg/kg/injection, schedule: Q04DX003 (ip), vehicle: saline) was 106 % of control and the T/C (dose: 2.0 mg/kg/injection, schedule: Q01DX015 (ip), vehicle: saline) was 89 % of control. For the same compound, the T/C (dose: 2.33 mg/kg/injection, schedule: Q01DX009 (ip), vehicle: saline with Tween-80) was 105 % of control and the T/C (dose: 3.54 mg/kg/injection, schedule: Q01DX009 (ip), vehicle: saline with Tween-80) was 100 % of control.

`CS/C(N)=N\C(=O)N(C)C` was tested, and the T/C [6] was 97 % of control, the T/C [7] was 98 % of control and the T/C (dose: 400.0 mg/kg/injection, schedule: Q04DX003 (ip), vehicle: saline with Tween-80) was 101 % of control.

With `O=C1c2ccccc2-c2cc(Br)c(N=C(NO)C(F)(F)F)cc21` the T/C [1] was 115 % of control, the T/C [2] was 105 % of control and the T/C [3] was 108 % of control.

For `O=Cc1ccc([N+](=O)[O-])o1`, the T/C (dose: 10.0 mg/kg/injection, schedule: Q01DX001 (ip), vehicle: saline) was 94 % of control, the T/C (dose: 12.5 mg/kg/injection, schedule: Q04DX002 (ip), vehicle: other) was 102 % of control and the T/C (dose: 20.0 mg/kg/injection, schedule: Q01DX001 (ip), vehicle: saline) was 100 % of control. The T/C (dose: 25.0 mg/kg/injection, schedule: Q04DX002 (ip), vehicle: other) was 97 % of control and the T/C (dose: 40.0 mg/kg/injection, schedule: Q01DX001 (ip), vehicle: saline) was 94 % of control.

In the case of `CCOC(=O)C1(C(=O)OCC)CCC(C(=O)OCC)(C(=O)OCC)CC1`, the T/C [8] is reported as 101 % of control, the T/C [9] is reported as 101 % of control and the T/C [10] is reported as 101 % of control.

With `CCCCC(CCCC)C(=O)O` the T/C [1] was 111 % of control, the T/C [2] was 92 % of control and the T/C [3] was 101 % of control.
